Literature values in patent US20200093804A1, “PHARMACEUTICAL COMPOSITION OF EVEROLIMUS” (INTAS PHARMACEUTICALS LTD., priority 2017, published 2020).

Settings: from literature

solubility: poor | stability: poor
Compound: CO[C@H]1C[C@@H]2CC[C@@H](C)[C@@](O)(O2)C(=O)C(=O)N2CCCC[C@H]2C(=O)O[C@H]([C@H](C)C[C@@H]2CC[C@@H](OCCO)[C@H](OC)C2)CC(=O)[C@H](C)/C=C(\C)[C@@H](O)[C@@H](OC)C(=O)[C@H](C)C[C@H](C)/C=C/C=C/C=C/1C [Everolimus, (1R,9S,12S,15R,16E,18R,19R,21R,23S,24E,26E,28E,30S,32S,35R)-1,18dihydroxy-12-{(1R)-2-[(1S,3R,4R)-4-(2-hydroxyethoxy)-3-methoxycyclohexyl]-1-methylethyl}-19,30-dimethoxy15,17,21,23,29,35-hexamethyl-11, 36-dioxa-4-aza-tricyclo[30.3.1.04,9]hexatriaconta-16,24,26,28-tetraene-2,3,10, 14,20pentaone]
